Reference: US4587342A, “2,4-diamino-(substituted-benzopyran(quinolyl,isoquinoly)methyl)pyrimidine s useful as antibacterials” (priority 1980, dated 1986)
In brackets after ≈: the same amount, converted by molar mass. Entries after “also recorded” stand apart in the source; their conditions may differ.

Legend:
[1] = Acute toxicity in mouse; details: in vivo, ip; i.p. mouse
[2] = tested on: St. faecalis CN478; assay: MIC against St. faecalis CN478 in vitro; assay type: cell-based; details: Enterococcus faecalis, read-out: Minimum Inhibitory Concentration (MIC)
Text: (§1) The compounds of the present invention were subjected to standard tests in order to determine the minimum inhibitory concentration in μg/ml needed to inhibit a range of bacterial microorganisms in-vitro.

[3] = Acute toxicity in rat; details: in vivo, po; p.o. rat
[4] = tested on: B. fragilis; assay: MIC against B. fragilis in vitro; assay type: cell-based; details: Bacteroides fragilis; B. fragilis (average 3-10 strains); read-out: Minimum Inhibitory Concentration (MIC)
Text: as §1

[5] = tested on: Staph. aureus CN491; assay: MIC against Staph. aureus CN491 in vitro; assay type: cell-based; details: Staphylococcus aureus, read-out: Minimum Inhibitory Concentration (MIC)
Text: as §1

[6] = tested on: Esch. coli CN314; assay: MIC against Esch. coli CN314 in vitro; assay type: cell-based; details: Escherichia coli, read-out: Minimum Inhibitory Concentration (MIC)
Text: as §1

[7] = tested on: Gonococci; assay: MIC against Gonococci in vitro; assay type: cell-based; details: Gonococci (average 17 strains); read-out: Minimum Inhibitory Concentration (MIC)
Text: as §1

[8] = tested on: Pr. mirabilis S2409; assay: MIC against Pr. mirabilis S2409 in vitro; assay type: cell-based; details: Proteus mirabilis, read-out: Minimum Inhibitory Concentration (MIC)
Text: as §1

[9] = tested on: Vibrio cholerae ATCC14035; assay: MIC against Vibrio cholerae ATCC14035 in vitro; assay type: cell-based; details: ATCC14035, read-out: Minimum Inhibitory Concentration (MIC)
Text: as §1

[10] = tested on: four individual gram negative microorganisms and one isolate of S. aureus; assay: Checkerboard potentiation study with SMX, overall; assay type: cell-based; details: words
Method: 2. Compound Preparation. Compound 1, trimethoprim (TMP) and SMX were each treated with N,N-dimethylformamide for 30 minutes. Dilutions were prepared using sterile distilled water.
3. Testing procedure. Two checkerboard patterns were set-up, namely: 1. SMX and TMP-lactate and 2. SMX and compound 1-lactate. Thirteen, two-fold dilutions of compound 1-lactate were prepared with final concentrations ranging from 6.2 ug/ml to 0.0016 ug/ml. Twenty two, two-fold dilutions of SMX were prepared with final plate concentrations ranging from 31 ug/ml to 0.000016 ug/ml. An analogous checkerboard scheme was set-up for the combination TMP and SMX. Microorganisms were grown on Wellcotest Sensitivity Test Agar containing various concentrations and permutations of compounds.
From the MIC's, a fractional inhibitory concentration (FIC) was calculated. This involves determining a fraction by dividing the MIC of an agent in combination over the MIC of the agent alone (1). If it is less than one, the interaction is synergistic, and if the sum is greater than one, the combination is antagonistic.

[11] = tested on: Salmonella dublin; assay: Experimental salmonellosis in calves; assay type: in vivo; details: for Mortality: 5 days from two days after infection, deaths/calves
[12] = tested on: Meningococci; assay: MIC against Meningococci in vitro; assay type: cell-based; details: Meningococci (average 5 strains); read-out: Minimum Inhibitory Concentration (MIC)
Text: as §1

[13] = tested on: St. agalactiae CN1143; assay: MIC against St. agalactiae CN1143 in vitro; assay type: cell-based; details: Streptococcus agalactiae, read-out: Minimum Inhibitory Concentration (MIC)
Text: as §1

[14] = tested on: Salmonella dublin; details: even at 40 mg/kg/day; cited from earlier work

Structure (SMILES) | LD50 [1] | MIC [2] | LD50 [3] | MIC [4] | MIC [5] | MIC [6] | MIC [7] | MIC [8] | MIC [9] | in vitro potentiation with SMX [10] | Mortality ([11]; 0.5 mg/kg daily plus SDZ 20 mg/kg) | reduction of mortality, in words ([11]; 0.5 mg/kg plus SDZ 20 mg/kg, in comparison with TMP 1 mg/kg) | Mortality ([11]; 1 mg/kg daily plus SDZ 20 mg/kg) | efficacy relative to TMP ([11]; 1 mg/kg each, plus SDZ 20 mg/kg) | recovery of the survivors ([11]; 1 mg/kg plus SDZ 20 mg/kg, in comparison with TMP 1 mg/kg (group 1)) | effectiveness relative to TMP ([11]; with SDZ 20 mg/kg, conclusion from all groups) | MIC [12] | MIC [13] | effect on mortality, SDZ alone [14]
COc1cc(Cc2cnc(N)nc2N)c2c(c1OC)OCC=C2 [Compound 1, 2,4-Diamino-5-(7,8-dimethoxy-2 --H--1-benzopyran-5-ylmethyl)-pyrimidine] | 610 mg/kg | 0.05 mg/L (≈ 0.159 µM) | > 1000 mg/kg | 1.08 mg/L (≈ 3.44 µM) | 0.05 mg/L (≈ 0.159 µM) | 0.05 mg/L (≈ 0.159 µM) | 10 mg/L (≈ 31.8 µM) | 5 mg/L (≈ 15.9 µM) | 0.05 mg/L (≈ 0.159 µM) | SMX appears to potentiate compound 1 as well as it does TMP; also recorded: in vitro potentation can be demonstrated between SMX and compound 1 in the case of four individual gram negative microorganisms and one isolate of S. aureus | 3/7 | produced a reduction of mortality comparable with that in group 1 (TMP, 1 mg/kg) | 0/6 | clearly superior to TMP at 1 mg/kg | much more rapid recovery of the survivors in group 2 | approximately twice as effective as TMP in this disease syndrome | 3.1 mg/L (≈ 9.86 µM) | 0.05 mg/L (≈ 0.159 µM) | –
Nc1ccc(S(=O)(=O)Nc2ncccn2)cc1 [SDZ] | – | – | – | – | – | – | – | – | – | – | – | – | – | – | – | – | – | – | no effect on mortality in this disease model
